Measured values: paper PMC3158675, “Effective inhibitors of the essential kinase PknB and their potential as anti-mycobacterial agents” (Tuberculosis (Edinburgh, Scotland), 2011)

Key:
Assay type in all cases: cell-based
[1] = test system: M. tuberculosis; assay: Alamar blue MIC with cell wall weakening agent ethambutol at 0.5 MIC
[2] = test system: M. tuberculosis; assay: Alamar blue MIC with efflux pump inhibitors reserpine and verapamil; details: reserpine or verapamil at 20 or 40 μg/ml
[3] = test system: M. smegmatis fbpA mutant; details: mutant compared with wild type

Row | Compound | Improvement of MIC in M. smegmatis fbpA mutant [3] | other results
1 | CO[C@H]1/C=C/O[C@@]2(C)Oc3c(C)c(O)c4c(O)c(c(/C=N/N5CCN(C)CC5)c(O)c4c3C2=O)NC(=O)/C(C)=C\C=C\[C@H](C)[C@H](O)[C@@H](C)[C@@H](O)[C@@H](C)[C@H](OC(C)=O)[C@@H]1C [rifampicin] |  | Reduction of MIC in the presence of sub-inhibitory ethambutol [1]: 4 fold
2 | CC[n+]1c(-c2ccccc2)c2cc(N)ccc2c2ccc(N)cc21 [ethidium bromide] |  | Decrease of MIC with efflux pump inhibitor [2]: 4 fold
3 | CN[C@H](CC(C)C)C(=O)N[C@H]1C(=O)N[C@@H](CC(N)=O)C(=O)N[C@H]2C(=O)N[C@H]3C(=O)N[C@H](C(=O)N[C@H](C(=O)O)c4cc(O)cc(O)c4-c4cc3ccc4O)[C@H](O)c3ccc(c(Cl)c3)Oc3cc2cc(c3O[C@@H]2O[C@H](CO)[C@@H](O)[C@H](O)[C@H]2O[C@H]2C[C@](C)(N)[C@H](O)[C@H](C)O2)Oc2ccc(cc2Cl)[C@H]1O [vancomycin] | 16 fold | 
4 | CC[C@H]1OC(=O)[C@H](C)[C@@H](O[C@H]2C[C@@](C)(OC)[C@@H](O)[C@H](C)O2)[C@H](C)[C@@H](O[C@@H]2O[C@H](C)C[C@H](N(C)C)[C@H]2O)[C@](C)(O)C[C@@H](C)C(=O)[C@H](C)[C@@H](O)[C@]1(C)O [erythromycin] | 8 fold | 
5 | [H]/N=C(/N)N[C@H]1[C@H](O)[C@@H](O)[C@H](O[C@@H]2O[C@@H](C)[C@](O)(C=O)[C@H]2O[C@@H]2O[C@@H](CO)[C@H](O)[C@@H](O)[C@@H]2NC)[C@@H](N/C(N)=N\[H])[C@@H]1O [streptomycin] | not improved | 
6 | CC[C@@H](CO)NCCN[C@@H](CC)CO [ethambutol] | not improved | 
